Laboratory results published in patent US20240300940A1, “Phenothiazinyl Compounds and Uses” (Prosetta Biosciences, Inc., priority 2023, published 2024).

Tests used:
Hennes-20 cells = assay: Hennes-20 oncology screen; format: cell-based; conditions: 72 h, alamar Blue
Method: To screen compounds for oncology activity Hennes-20 cells were plated at low (500 cells/well) versus high (15,000 cells/well) densities and treated with DMSO (vehicle) or dose-titration of compounds. The rationale for this screen is that an intrinsically toxic compound should kill cells regardless of density, including in Hennes-20 cells. However, a compound that selectively triggers the arrest of proliferation will inhibit cell growth when plated at a low density will appear cytotoxic due to inhibition of cell growth when plated at a low density but will appear non-toxic to cells plated at a high density where the cells are approaching confluence and the readout detected by a cell viability assay is already close to the maximum.
To conduct the Hennes-20 screen, two 96 well plates were seeded with Hennes 20 cells in parallel where one was plated at a density of 500 cells/well and the other was plated at a density of 15,000 cells/well. 90 uL of minimum essential media was added to each well and plates were placed in a 37 degrees Celsius incubator for 24 hours. The next day, 10 ul of media containing dilutions of compound in DMSO were added to each plate. Six wells on each plate received 10 ul of media containing only DMSO. Each well was gently mixed 5 times with a 100 ul pipette. Plates were incubated at 37 degrees Celsius for 72 hours and then 10 uL of alamar Blue was added to each well. Wells were mixed 5 times then incubated at 37 degrees Celsius for […]. Plates were then read at 530/590.
The rationale for the screen is as follows: Hennes-20 cells lack endogenous apoptosis. Cells plated at low density will proliferate and approach confluence in 72 hrs. A drug that arrests proliferation may have its proliferation blocking effect masked by the triggering of endogenous apoptosis. However, in the Hennes line, lacking endogenous apoptosis, such an arrest is manifest as a dose-dependent maintenance at low cell density. Since the high-density cells are plated close to confluence, the difference between Alamar Blue cell survival readings after 72 hrs reflects the ability of the drug to block proliferation in the low density-plated cells. In the high density-plated cells any diminution of Alamar Blue readout vs vehicle control is due to intrinsic toxicity, not proliferation arrest, since cells were already at confluence. Thus, a compound that appears toxic (low Alamar Blue readings after 72 hrs) on the low-density plate, but which appears non-toxic (high Alamar Blue readings after 72 hrs) on the high-density plate, must be arresting proliferation, since intrinsic compound toxicity should be observed at both low and high cell densities, not selectively on the low-density plate.

NL4-3 Rluc virus = assay: microbe, parasite or virus in culture; format: cell-based, HIV; conditions: MT-2 cells, MOI 0.02, 96 hours
VACV-LUC virus = assay: microbe, parasite or virus in culture; format: cell-based; conditions: Orthopoxvirus vaccinia, HeLa, 2 h
E. coli ATCC25922 = assay: MIC assay, serial dilution; conditions: for MIC: Escherichia coli, ATCC25922, read-out: Anti-bacterial Activity (E. coli MIC (uM)), E. coli, Table 5
RABV ERA strain = assay: organism not typed; format: cell-based
[1] = Human immunodeficiency virus 1, NL43, MT2, 96 h

| Structure (SMILES) | EC50 (Hennes-20 cells) [nM] | EC50 (NL4-3 Rluc virus; [1]) [nM] | EC50 (VACV-LUC virus) [nM] | MIC (E. coli ATCC25922) [µM] | EC50 (RABV ERA strain) [nM] | Anti-bacterial Activity (E. coli MIC (uM)) (E. coli ATCC25922; E. coli, Table 5) [µM] | EC50 (NL4-3 Rluc virus) [nM] |
| --- | --- | --- | --- | --- | --- | --- | --- |
| CCc1cc(N(C)C)cc2[s+]c3cc(N4CCCC4)cc(CC)c3nc12 [Compound 36] | < 500 | 7.6 | < 1670 | 1.6 | – | – | – |
| CCc1cc(N2CCCC2)cc2[s+]c3cc(N4CCCC4)cc(C)c3nc12 [Compound 45] | < 2500 | 3.1 | < 1670 | 0.8 | – | – | – |
| CCc1cc(N2CCCC2)cc2[s+]c3cc(N4CCCC4)cc(C(C)C)c3nc12 [Compound 46] | < 500 | 3 | – | – | < 5 | 3.1 | – |
| c1cc2nc3ccc(N4CCCC4)cc3[s+]c2cc1N1CCCC1 [Compound 68] | < 500 | 42 | < 560 | 6.3 | – | – | – |
| CCc1cc(NC(C)C)cc2[s+]c3cc(N4CCCN(C(=O)OC(C)(C)C)CC4)cc(CC)c3nc12 [Compound 69] | < 500 | – | < 5000 | – | – | – | – |
| CCc1cc(N2CCCC2)cc2[s+]c3cc(N(C)C)cc(C(C)C)c3nc12 [Compound 73] | 500 | 1.8 | 1670 | 100 | < 500 | – | – |
| CCc1cc(N2CCCCCC2)cc2[s+]c3cc(N(C)C4CCNCC4)cc(CC)c3nc12 [Compound 77] | < 2500 | – | 1670 | 3.1 | – | – | – |
| CCc1cc(N(C)C)cc2[s+]c3cc(N4CCCNCC4)cc(CC)c3nc12 [Compound 83] | < 12500 | – | 1670 | 100 | < 500 | – | 270 |
